Columns and labels:
[1] = test system: X-ALD mouse primary fibroblasts; assay: C24:0 β-oxidation activity ([1-14C]-C24:0 to water-soluble products); type: cell-based; details: 5 mM 4PBA for 6 days
Experimental: (§1) Human Tibroblast C24:0 β-oxidation increased from 25% to 48% of normal; human lymphobfastoid cells, from 18% to 53% of normal; and mouse fibroblasts, from 15% to 29% of normal. […] There are several possible mechanisms that could account for the action of 4-PBA in X-ALD.
(§2) Cell culture and 4-PBA treatment. Cell lines derived from X-ALD patients and X-ALD mice were grown in MEM (fibroblasts) or RPMI (ymphoblastoid cells) supplemented with fetal calf serum (10%), penicillin (100 U/ml), streptomycin (100 U/mi) and glutamine (2 mM). […] Cells in the second flask were grown without drug for the same length of time and served as controls. The media were changed every 3-4 days.
(§3) Biochemical measurements. […] For VLCFA measurements, total lipids were extracted, converted to methyl esters, purified by TLC and subjected to capillary GC analysis as described. Duplicate assays were set up independently and were assayed on different days. C24:0 β-oxidation activity of human and mouse fibroblasts and human lymphoblastoid cells was determined by measuring their capacity to degrade [1-^14C]-C24:0 fatty acid (American Radiolabeled Chemicals, St Louis, Mo.) to water-soluble products as described. Phytanic acid oxidation was measured as described. Cells were incubated with [2,3-^3H]-phytanic acid for 24 hours, and the release of ^3H-H2O to the aqueous medium was determined (activity in pmol/hr per mg protein).

[2] = test system: X-ALD human primary fibroblasts; assay: as above; type: cell-based
Experimental: as §1, §2, §3

[3] = test system: X-ALD human lymphoblastoid cells; assay: as above; type: cell-based; details: 5 mM 4PBA for 6 days
Experimental: as §1, §2, §3

[4] = test system: patients with urea cycle disorders; details: used for many years; cited from earlier work
PPARα = assay: Semi-quantitative RT-PCR in primary fibroblasts; type: cell-based
From the text: In rodents PPARα expression is increased by peroxisomal proliferators. […] Thus, although the peroxisome proliferation response in mice may be, at least in part, through the documented PPARα pathway, the response in human cells seems to be through a newly discovered pathway that may involve Pex11α. […] This again indicates a newly discovered pathway for 4-PBA-induced peroxisome proliferation in humans and perhaps in rodents. AOX has been identified as the rate-limiting step in VLCFA β-oxidation.
(§4) Semi-quantitative RT-PCR analysis. Total RNA from tissue culture cells (10^6-10^7 cells/sample) was isolated using TRizol Reagent™ (Life Technologies), treated with DNase I (100-200 units in 40 mM HCI, 10 mM NaCl, 6 mM MgCl2, pH 7.3), incubated at 37° C. for 30 min, extracted with phenol/chloroform, and precipitated with isopropanol. cDNA was generated using MMLV reverse transcriptase (RT) (Life Technologies). PCR was done in the linear range of amplification (determined for each primerpair-cDNA combination). For each cDNA sample, a ‘cocktail’ was prepared, containing PCR buffer (Promega), 200 µM of each DNTP, 1.5 mM MgCl2, 250 ng cDNA, 0.25 U of Taq polymerase (Promega) and […]. The ‘cocktail’ was divided into separate tubes containing cDNA specific primers.
Primers. The PCR primers used are listed below. […]

PMP70 = assay: Semi-quantitative RT-PCR in primary fibroblasts; type: cell-based, mouse; details: X-ALD or normal primary fibroblasts, 5 mM 4-PBA for 2 days
Experimental: (§5) Semi-quantitative RT-PCR was done on the mRNA isolated from these cells (FIG. 1). […] In addition, the expression of acyl-CoA oxidase (AOX), the rate-limiting enzyme in VLCFA β-oxidation, was not affected. Although previous studies have reported that ALDR mRNA was not detectable in fibroblasts by either northern or RT-PCR analyses, those RT-PCR studies used about 66 ng of CDNA; we used about 250 ng of cDNA.
as §4
(§6) Primers. The PCR primers used are listed below. In the parentheses, h indicates human and m, mouse; this is followed by the gene name, product size and annealing temperature. […]

ALDP = assay: Semi-quantitative RT-PCR in primary fibroblasts; type: cell-based, mouse; details: normal primary fibroblasts, 5 mM 4-PBA for 2 days
Experimental: as §5, §4, §6

Compound: O=C(O)CCCc1ccccc1 [4-PBA, 4-Phenyl butyrate]
- C24:0 β-oxidation, Increase (treated vs untreated) [1]: 1.87 fold
- increase in C24:0 β-oxidation ([2]; 5 mM 4-PBA for 6 days, all X-ALD cell lines tested (human and mouse)): twofold to threefold increase
- C24:0 β-oxidation, Increase (treated vs untreated) ([2]; 5 mM 4PBA for 6 days): 1.95 fold
- C24:0 β-oxidation, Increase (treated vs untreated) [3]: 2.92 fold
- side effects [4]: few, if any, side effects
- PPARα expression (PPARα; human X-ALD fibroblasts, even after 10 days of treatment): unchanged
- PPARα expression (PPARα; mouse X-ALD fibroblasts, as early as 2 days after treatment): increased
- PMP70 expression level (PMP70): little, if any, effect
- ALDP expression (mRNA) (ALDP): little, if any, effect

Source: patent publication US6458838B1, “Adrenoleukodystrophy treatments” (Johns Hopkins University, priority 1999, dated 2002)
